Structures can show the parent of a compound that is named as a salt.
How the values were obtained:
[1] = Longitudinal (r1) and transversal relaxivity measurement of gadolinium materials, 4.7T MRI; format: physicochemical; conditions: per gadolinium concentration 0-1 mM
From the text: Gd contrast agents in clinical use can enhance the signal intensity of the lesion area during T1-weighted magnetic resonance imaging, thus showing a bright area. Since human naked eye is more sensitive to bright matters, these contrast agents can better meet the needs of human naked eye. But Gd contrast agents in clinical use have no targeting feature and have a low relaxation rate, thus failing to meet the needs for early diagnosis of diseases such as tumors. In the present invention, a tumor-targeted ferritin shell is used, and in the cavity thereof a gadolinium-iron nano-material is formed by biomimetic mineralization. By using purified human H-subunit ferritin as a template, a ferrous salt, a gadolinium salt and oxidant hydrogen peroxide are added into a solution of recombinant human ferritin, controlling the pH at 8.5 and the temperature at 65° C. […] The numbers of iron atoms and gadolinium atoms are measured through inductively coupled plasma mass spectrometry. The longitudinal relaxivity (r1) and transversal relaxivity (r2) of the material are measured using a 4.7T magnetic resonance imaging system. […]

[2] = system: U87MG human glioma; experiment: 4.7T MRI of in-situ glioma; format: in vivo, nude mouse; conditions: 0.1 mmol/kg tail vein, scanned 2 hours, glioma about 1-2 mm
Procedure: 10^6 U87MG human glioma cells (purchased from ATCC, cultivated at Nanjing KeyGEN BioTECH development Ltd.) are inoculated onto the cerebral cortex of a nude mouse by in-situ penetration through the cranium and its tympanic membrane slightly off the median line of the cerebrum. Magnetic resonance imaging is conducted after about 3-4 days. The nude mouse is anesthetized by respiratory anesthesia and an intravenous needle is detained in tail vein. The mouse is put into a 4.7T MRI system and stays in stationary state in the course of magnetic resonance scanning. The commercialized Gd-DTPA contrast agent (magnevist, produced by Bayer Corp.) is first injected through tail vein as reference (injection dosage: 0.1 mmol/kg) and is scanned continuously for 2 hours in the magnetic resonance chamber. After the Gd-DTPA is completely metabolized and excreted, human H-subunit magnetoferritin is injected through tail vein (injection dosage: 20 mg Fe/kg mouse weight) and is scanned continuously for 3 hours. […]
Purified human H-subunit ferritin is partially or totally denatured using denaturant such as guanidine hydrochloride (1-7 M) or urea (2-8 M) etc. such that the subunits are partially or totally depolymerized. […] Protein quantification is conducted using BCA protein quantification reagent kit. The number of Gd atoms encapsulated in a single protein molecule is measured using ICP-MS. […]

[3] = system: NCI-H460 lung cancer; experiment: Treatment experiment on lung cancer in vivo

Row | SMILES | longitudinal relaxivity r1 [1] | T1-weighted MRI signal intensity of the glioma area after injection [2] | tumor volume difference versus PBS control group ([3]; 8 days after administration, doxorubicin 3 mg/kg every 3 days) | average tumor inhibition rate ([3]; tumor weights, doxorubicin 3 mg/kg tail vein every 3 days, 15 days, 3 mice per group)
1 | O=C([O-])CN(CCN(CC(=O)[O-])CC(=O)O)CCN(CC(=O)[O-])CC(=O)O.[Gd+3] [Gd-DTPA] | about 5.9 mM^−1S^−1 | no evident change |  | 
2 | COc1cccc2c1C(=O)c1c(O)c3c(c(O)c1C2=O)C[C@@](O)(C(=O)CO)C[C@@H]3O[C@H]1C[C@H](N)[C@H](O)[C@H](C)O1 [doxorubicin hydrochloride] |  |  | minute difference | 23%

Reference: US20150093335A1, “CELL-TARGETED MAGNETIC NANO-MATERIAL AND BIOMEDICAL USES THEREOF” (Institute of Geology and Geophysics, Chinese Academy of …, priority 2012, published 2015)
